Measurements: paper PMC9681820, “A PDE10A inhibitor CPL500036 is a novel agent modulating striatal function devoid of most neuroleptic side-effects” (Frontiers in Pharmacology, 2022)
Read-outs that look alike come from different tables or passages of the source.

What was measured:
[1] = test system: Beagle dogs; assay: In vivo cardiovascular safety, telemetry; conditions: 1.5 mg/kg, 10 mg/kg or 30 mg/kg, p.o., n = 4, free-base form
Excerpt: Four male Beagle dogs who had been implanted previously with telemetry transmitter devices (Data Sciences, Saint Paul, MN, United States) were used. The number of animals corresponds to the standard approach used for such studies ([Smith et al., 2002]; [Authier et al., 2020]) and includes the accepted study sensitivity and ethics for use of nonrodent species ([ICH S7A Safety Pharmacology Studies for Human Pharmaceuticals, 2001]; [Smith et al., 2002]; [Authier et al., 2020]). The study consisted of four acquisition sessions using a crossover design with dosing intervals of ≥ 48 h. In each experimental session, each dog received (via oral gavage) a different treatment: either vehicle or CPL500036 (1.5 mg/kg, 10 mg/kg or 30 mg/kg). Cardiovascular safety was assessed on arterial blood pressure (systolic, diastolic and mean), heart rate (HR) and electrocardiography (RR interval, PR interval, QRS duration, uncorrected QT and corrected QT (QTc) for heart rate using van de Water correction) acquired continuously for ≥ 2 h before dosing, and for ≥ 24 h post-dose. All parameters were evaluated before and at 13-time points after treatment (15 min, 30 min as well as 1 h, 2 h, 3 h, 4 h, 5 h, 6 h, 8 h,12 h, 16 h, 20 h, and 24 h after dosing).

[2] = test system: Salmonella typhimurium TA100; conditions: CPL500036 5000µg/plate, n=3
[3] = MTT cytotoxicity assay; assay type: cell-based; conditions: human, n = 3
Protocol: The cytotoxicity of CPL500036 was evaluated in human non-small-cell lung cancer (NCI-H1299, ATCC® CRL-5803™), human hepatocellular carcinoma (Hep G2 [HEPG2], ATCC® HB-8065™) and human neuroblastoma (SH-SY5Y, ECACC, 94030304) cells using the 3-(4,5-dimethylthiazol-2-yl)-2,5-diphenyltetrazolium bromide (MTT) assay (Invitrogen, Carlsbad, CA, United States). Cells were seeded in an appropriate complete growth medium (following manufacturer recommendations) onto 96-well plates. After overnight incubation (37°C, 5% CO2) the medium was replaced with fresh medium (100 μl/well) containing the desired concentration of CPL500036 (8 nM–60 μM, diluent factor = 3), positive control or vehicle control (1% dimethyl sulfoxide (DMSO)) followed by incubation for 72 h (37°C, 5% CO2). Then, 25 μl of filtered (filter size = 0.22 μm) MTT solution (12 mM) in phosphate-buffered saline (PBS) was added to each well, including blank control (medium without cells) followed by incubation for 2 h (37°C, 5% CO2). After that, formazan crystals were dissolved in DMSO (100 μl/well). The absorbance was measured at 540 nm (A540, substrate wavelength) and 690 nm (A690, reference wavelength) using an automatic microplate reader (Multiskan™ GO; ThermoFisher Scientific). The metabolic activity of cells in the presence of vehicle control (1% DMSO) was considered to be 100%, and we calculated the difference between A540 and A690. IC50 was calculated using Prism 7.05.

[4] = test system: Wistar Han rats; assay: Glucose tolerance test; assay type: in vivo; conditions: 0.3 mg/kg, 1 mg/kg, and 3 mg/kg, p.o., 2 h before glucose bolus, n = 8
Protocol: Thirty-two male Wistar Han rats (∼10 weeks; Tri-City Academic Laboratory Animal Centre-Research and Services Centre, Medical University of Gdansk) were fasted for 16 h before experimentation. Animals underwent gavage with CPL500036 (0.3 mg/kg, 1 mg/kg or 3 mg/kg) or vehicle 2 h before receiving a glucose bolus (2 g/kg, i.p.; MilliporeSigma). Olanzapine (10 mg/kg) was used as an active comparator and delivered (s.c.) 30 min before the glucose bolus. Blood samples from the tail vein were collected from each rat right before drug administration, just before glucose loading as well as 15 min, 30 min, 60 min, 120 min, and 180 min after glucose administration. The glucose concentration was measured using a glucometer (Accu-ChekGo, Roche Diagnostics, Mannheim, Germany).

[5] = test system: voltage-gated sodium channels site 2; assay: SafetyScreen44 radioligand binding; design: species or system rat; conditions: 1 μM
Protocol: (§1) The SafetyScreen44® assay was carried out by Eurofins (Poitiers, France) according to the service-provider’s protocol. CPL500036 (1 µM) was tested against a panel of […] potential off-targets proteins, including G protein-coupled receptors (GPCRs), transporters, ion channels, nuclear receptors kinases and other non-kinase enzymes, by use of a set of the binding assays.
(§2) Binding of CPL500036 was calculated as the percent binding inhibition of a radioactively labeled ligand specific for each target. Enzyme inhibition of CPL500036 was calculated as the percent inhibition of the activity of the control enzyme. “No interaction” was denoted if inhibition ≤ 25% of specific binding of the control. Determination of muscarinic acetylcholine receptor (M2) activity induced by CPL500036 (antagonism and agonism) was undertaken in human recombinant CHO cells by measurement of the intracellular cAMP level according to the service-provider’s protocol. IC50 (concentration causing a half-maximal inhibition of specific binding of the control) or EC50 (concentration causing a half-maximal response of specific binding of the control) and the Hill coefficient were determined by non-linear regression analysis of the competition curves generated with mean replicate values using Hill-equation curve fitting with software developed at Cerep (Celle-Lévescault, France).

[6] = test system: benzodiazepine receptor (GABAA); assay: SafetyScreen44 radioligand binding; design: species or system rat; conditions: 1 μM; agonist radioligand
Protocol: as §1, §2

[7] = test system: α-dendrotoxin sensitive potassium channel; assay: SafetyScreen44 radioligand binding; design: species or system rat; conditions: 1 μM
Protocol: as §1, §2

[8] = test system: N-Methyl-D-aspartic acid receptor; assay: SafetyScreen44 radioligand binding; design: species or system rat; conditions: 1 μM
Protocol: as §1, §2

[9] = test system: calcium channel, voltage-dependent, L type; assay: SafetyScreen44 radioligand binding; design: species or system rat; conditions: 1 μM
Protocol: as §1, §2

[10] = test system: Salmonella typhimurium TA1535; conditions: CPL500036 5000µg/plate, n=3
[11] = test system: unilateral rat model of Parkinson’s disease; design: method as in Lenda et al., 2021; conditions: Parkinson’s disease animal model; ref Lenda et al., 2021; cited from earlier work
[12] = test system: human; conditions: ref Janowska et al., 2019, manuscript in preparation; cited from earlier work
[13] = With metabolic activation (+S9 mix), 2AA 2µg/plate
[14] = Without metabolic activation (-S9 mix), SAZ 2µg/plate

Which results are given for `Cc1ncc(C)n2nc(-c3ccn4cc(-c5ccccc5)nc4n3)nc12` [CPL500036, 7-[5,8-Dimethyl-(1,2,4)triazolo (1,5-a)pyrazin-2-yl]-2-phenylimidazo (1,2-a) pyrimidine]?
electrocardiography parameters (particularly QTcv and QRS duration) [1]: Noticeable alterations in any of the electrocardiography parameters analyzed (particularly QTcv and QRS duration) were not observed; heart rate [1]: significant differences were not seen compared with the vehicle control group; systolic, diastolic and mean blood pressures [1]: Remarkable variations in systolic, diastolic and mean blood pressures were not recorded; Mutation rate [2, 13]: 0.82; Revertants Mean±SD [2, 13]: 62.3±9.02; Mutation rate [2, 14]: 1.02; Revertants Mean±SD [2, 14]: 66.3±1.08; IC50 at 72 h ([3]; HepG2 cells, HepG2, 72 h): > 60 µM; IC50 at 72 h ([3]; NCI-H1299 cells, H1299, 72 h): > 60 µM; IC50 at 72 h ([3]; SH-SY5Y cells): > 60 µM; effect on the glucose level, glucose-tolerance test [4]: has no effect on the glucose level; % Inh (% inhibition of control specific binding) [5]: −1.3%; % Inh (% inhibition of control specific binding) [6]: −27.7%; % Inh (% inhibition of control specific binding) [7]: −10.2%; % Inh (% inhibition of control specific binding) [8]: 4.4%; % Inh (% inhibition of control specific binding) [9]: −7.2%; Mutation rate [10, 13]: 0.6; Revertants Mean±SD [10, 13]: 8.3±5.13; Mutation rate [10, 14]: 1.13; Revertants Mean±SD [10, 14]: 12.0±5.57; dose showing therapeutic activity [11]: 0.1 mg/kg; bioavailability in human [12]: bioavailable in human; safety and tolerability in human [12]: generally safe and well tolerated with no serious adverse effects
